In assay [1] the test system is ISC-enriched organoids. The assay is described as follows: Primary screen, 384-well 2.5-D organoid differentiation (ENR+CD, 6 days): basal lysozyme secretion (LYZ.NS). The note with it: for Dose.FC.LYZ.NS (log 2 fold change): vs plate median. Format: cell-based, murine. The text has this:
(§1) High-throughput screening.

The test system of assay [2] is ISC-enriched organoids. The assay is described as follows: Primary screen, 384-well 2.5-D organoid differentiation (ENR+CD, 6 days): carbachol-induced lysozyme secretion (LYZ.S). Format: cell-based, murine. The note with it: primary screen; for Dose.FC.LYZ.S (log 2 fold change): vs plate median.
Source text: as §1

The test system of assay [3] is ISC-enriched organoids. Briefly: Primary screen, 384-well 2.5-D organoid differentiation (ENR+CD, 6 days, Target Selective Inhibitor Library, vs whole-plate median): ATP (CellTiter-Glo 3D, CTG). The note with it: for Dose.FC.CTG (log 2 fold change): vs plate median.
Where [4] appears, read: Dose 0.08 uM, primary screen, FC vs plate median.
The mark [5] stands for this setting: Dose 0.08 uM, standard z score of FC.

In turn, `N#CSc1cc(SC#N)c(N)nc1N` [PR-619] had a Dose.FC.LYZ.NS in the assay with ISC-enriched organoids [1] (setting [4]) of 0.100 log 2 fold change. The same compound had a Z.LYZ.NS in the assay with ISC-enriched organoids [1] (setting [5]) of 0.872. The “Z.LYZ.NS (standard z score)” value with ISC-enriched organoids [1] (Dose 0.40 uM, primary screen) is on record as 0.448; in the assay on ISC-enriched organoids [1] (Dose 2.00 uM, primary screen) it was 0.495; with ISC-enriched organoids [1] (Dose 10.00 uM, primary screen), −1.687. The “Dose.FC.LYZ.NS (log 2 fold change)” value in the assay with ISC-enriched organoids [1] (Dose 0.40 uM, primary screen) is recorded as 0.051; in the assay on ISC-enriched organoids [1] (Dose 2.00 uM, primary screen) it was 0.057; in the assay on ISC-enriched organoids [1] (Dose 10.00 uM, primary screen), −0.194. Besides, the Dose.FC.LYZ.S in the assay on ISC-enriched organoids [2] (Dose 0.08 uM, FC vs plate median) is listed as 0.122 log 2 fold change. Also, the “Dose.FC.LYZ.S (log 2 fold change)” value was 0.047 with ISC-enriched organoids [2] (Dose 0.40 uM), 0.081 with ISC-enriched organoids [2] (Dose 2.00 uM) and −0.193 in the assay on ISC-enriched organoids [2] (Dose 10.00 uM). In addition, the Dose.FC.CTG in the assay with ISC-enriched organoids [3] (setting [4]) stood at 0.054 log 2 fold change. Moreover, the Z.CTG with ISC-enriched organoids [3] (setting [5]) is recorded as 0.130. The “Z.CTG (standard z score)” value is 0.266 in the assay on ISC-enriched organoids [3] (Dose 0.40 uM, primary screen); 0.053 with ISC-enriched organoids [3] (Dose 2.00 uM, primary screen); −0.764 in the assay with ISC-enriched organoids [3] (Dose 10.00 uM, primary screen). The “Dose.FC.CTG (log 2 fold change)” value in the assay on ISC-enriched organoids [3] (Dose 0.40 uM, primary screen) is recorded as 0.111; in the assay with ISC-enriched organoids [3] (Dose 2.00 uM, primary screen) it was 0.022; with ISC-enriched organoids [3] (Dose 10.00 uM, primary screen) it was −0.320.
For the compound `Cl.NC(=O)c1cnc(N[C@@H]2CCCC[C@@H]2N)nc1Nc1cccc(-n2nccn2)c1` [PRT062607 (P505-15, BIIB057) HCl], the “Z.LYZ.NS (standard z score)” value is reported as 0.037 with ISC-enriched organoids [1] (Dose 0.08 uM, primary screen); 0.194 in the assay on ISC-enriched organoids [1] (Dose 0.40 uM, primary screen); −0.280 with ISC-enriched organoids [1] (Dose 2.00 uM, primary screen); −1.837 in the assay with ISC-enriched organoids [1] (Dose 10.00 uM, primary screen). Also, the “Dose.FC.LYZ.NS (log 2 fold change)” value with ISC-enriched organoids [1] (Dose 0.08 uM, primary screen) was 0.004; in the assay with ISC-enriched organoids [1] (Dose 0.40 uM, primary screen), 0.022; in the assay on ISC-enriched organoids [1] (Dose 2.00 uM, primary screen), −0.032; with ISC-enriched organoids [1] (Dose 10.00 uM, primary screen), −0.211. The “Dose.FC.LYZ.S (log 2 fold change)” value in the assay with ISC-enriched organoids [2] (Dose 0.08 uM) was −0.033; in the assay on ISC-enriched organoids [2] (Dose 0.40 uM), 0.122; in the assay with ISC-enriched organoids [2] (Dose 2.00 uM), −0.123; in the assay on ISC-enriched organoids [2] (Dose 10.00 uM) it was −0.298. Moreover, the “Z.CTG (standard z score)” value in the assay on ISC-enriched organoids [3] (Dose 0.08 uM, primary screen) was −0.219; with ISC-enriched organoids [3] (Dose 0.40 uM, primary screen), 0.191; in the assay with ISC-enriched organoids [3] (Dose 2.00 uM, primary screen), −0.179; in the assay on ISC-enriched organoids [3] (Dose 10.00 uM, primary screen) it was −0.788. For the same compound, the “Dose.FC.CTG (log 2 fold change)” value in the assay with ISC-enriched organoids [3] (Dose 0.08 uM, primary screen) is recorded as −0.092; with ISC-enriched organoids [3] (Dose 0.40 uM, primary screen), 0.080; in the assay on ISC-enriched organoids [3] (Dose 2.00 uM, primary screen) it was −0.075; in the assay with ISC-enriched organoids [3] (Dose 10.00 uM, primary screen) it was −0.330.
Regarding `COc1cc(Br)c(Nc2nc(-c3c(C)nc4ncccn34)cs2)c(Br)c1` [PTC-209], the “Z.LYZ.NS (standard z score)” value in the assay on ISC-enriched organoids [1] (Dose 0.08 uM, primary screen) is 0.294; in the assay with ISC-enriched organoids [1] (Dose 0.40 uM, primary screen) it was −0.509; in the assay on ISC-enriched organoids [1] (Dose 2.00 uM, primary screen), −1.753; in the assay on ISC-enriched organoids [1] (Dose 10.00 uM, primary screen), −1.975. Besides, the “Dose.FC.LYZ.NS (log 2 fold change)” value in the assay on ISC-enriched organoids [1] (Dose 0.08 uM, primary screen) is reported as 0.034; in the assay with ISC-enriched organoids [1] (Dose 0.40 uM, primary screen), −0.058; with ISC-enriched organoids [1] (Dose 2.00 uM, primary screen), −0.201; with ISC-enriched organoids [1] (Dose 10.00 uM, primary screen) it was −0.227. The “Dose.FC.LYZ.S (log 2 fold change)” value was 0.007 with ISC-enriched organoids [2] (Dose 0.08 uM), 0.045 in the assay with ISC-enriched organoids [2] (Dose 0.40 uM), −0.289 with ISC-enriched organoids [2] (Dose 2.00 uM) and −0.300 with ISC-enriched organoids [2] (Dose 10.00 uM). In addition, the “Z.CTG (standard z score)” value was −0.259 with ISC-enriched organoids [3] (Dose 0.08 uM, primary screen); −0.495 in the assay on ISC-enriched organoids [3] (Dose 0.40 uM, primary screen); −3.397 in the assay on ISC-enriched organoids [3] (Dose 2.00 uM, primary screen); −3.708 in the assay with ISC-enriched organoids [3] (Dose 10.00 uM, primary screen). The “Dose.FC.CTG (log 2 fold change)” value in the assay on ISC-enriched organoids [3] (Dose 0.08 uM, primary screen) was −0.108; with ISC-enriched organoids [3] (Dose 0.40 uM, primary screen), −0.207; with ISC-enriched organoids [3] (Dose 2.00 uM, primary screen), −1.422; with ISC-enriched organoids [3] (Dose 10.00 uM, primary screen) it was −1.553.
`CCOC(=O)c1ccc(N2NC(=O)/C(=C/c3ccc([N+](=O)[O-])o3)C2=O)cc1` [PYR-41]: the “Z.LYZ.NS (standard z score)” value in the assay with ISC-enriched organoids [1] (Dose 0.08 uM, primary screen) stood at 1.305; in the assay on ISC-enriched organoids [1] (Dose 0.40 uM, primary screen), 0.777; in the assay with ISC-enriched organoids [1] (Dose 2.00 uM, primary screen) it was 0.568; in the assay with ISC-enriched organoids [1] (Dose 10.00 uM, primary screen), 0.861. In addition, the “Dose.FC.LYZ.NS (log 2 fold change)” value in the assay on ISC-enriched organoids [1] (Dose 0.08 uM, primary screen) is 0.150; in the assay on ISC-enriched organoids [1] (Dose 0.40 uM, primary screen) it was 0.089; with ISC-enriched organoids [1] (Dose 2.00 uM, primary screen), 0.065; in the assay on ISC-enriched organoids [1] (Dose 10.00 uM, primary screen) it was 0.099. In addition, the “Dose.FC.LYZ.S (log 2 fold change)” value was 0.193 with ISC-enriched organoids [2] (Dose 0.08 uM), 0.076 in the assay with ISC-enriched organoids [2] (Dose 0.40 uM), 0.049 in the assay with ISC-enriched organoids [2] (Dose 2.00 uM) and 0.129 in the assay on ISC-enriched organoids [2] (Dose 10.00 uM). In addition, the “Z.CTG (standard z score)” value with ISC-enriched organoids [3] (Dose 0.08 uM, primary screen) was found to be 0.609; with ISC-enriched organoids [3] (Dose 0.40 uM, primary screen) it was 0.762; in the assay on ISC-enriched organoids [3] (Dose 2.00 uM, primary screen), 0.385; in the assay with ISC-enriched organoids [3] (Dose 10.00 uM, primary screen) it was 0.229. The “Dose.FC.CTG (log 2 fold change)” value in the assay on ISC-enriched organoids [3] (Dose 0.08 uM, primary screen) is reported as 0.255; in the assay with ISC-enriched organoids [3] (Dose 0.40 uM, primary screen), 0.319; in the assay on ISC-enriched organoids [3] (Dose 2.00 uM, primary screen), 0.161; with ISC-enriched organoids [3] (Dose 10.00 uM, primary screen) it was 0.096.

Values taken from patent US20230398130A1, “METHODS AND COMPOSITIONS FOR DIFFERENTIATING STEM CELLS” (Massachusetts Institute of Technology, priority 2020, published 2023).
